Laboratory results taken from publication PMC7005452 (Heliyon, 2020).
Read-outs that look alike come from different tables or passages of the source.

Assays:
[1] = WST-1 cytotoxicity / cell viability assay; type: cell-based, human; conditions: human, HEK293 cells, log-probit on percentage mortality, read-out: LC50
Procedure: (§1) Human embryonic kidney 293 (HEK293) and CACO2 cells were purchased from ATCC. Cells were cultured in DMEM (Corning, USA) supplemented with 10% FBS (Gibco, USA) and 1% penicillin/streptomycin (Gibco, USA). SH-SY5Y cells were gifted by Dr. Dong-Hyung Cho's laboratory in the Dept. of Life Science at Kyungpook National University and were grown in DMEM with high glucose (Gibco, USA). Cells were grown to 80–90% confluence in a 10 cm plate before splitting into a 96 well plate. […] After 48 h incubation, 10% (v/v) of water soluble tetrazolium salt (WST, DoGen Inc., South Korea) was added to each well, following the manufacturer's instruction. Orange color development for enzyme-substrate reaction was monitored, using spectrophotometry at 450 nm (Tecan Sunrise, Switzerland).
(§2) One-way ANOVA, followed by a post-hoc Tukey's HSD test, was used to determine differences in toxicity, and repellency percentages (P < 0.05) (SAS for Window release 6, SAS Institute). All percentage mortality data were corrected using Abbott's formula ([Abbott, 1987]). […] Adult repellency percentage was calculated using the formula PR (%) = [(C-T)/(C + T)] × 100 ([Liu et al., 2013]). All analyses were performed in SAS version 9.4. All the graphs were drawn with SigmaPlot 12.5 (Systat Software, Inc., San Jose, CA, USA).
(§3) As the safety of agricultural products and foods became a major concern and issue in the modern society, validating the effects of pesticides on human physiology and setting the safety limits of their use is important ([Fan and Jackson, 1989]; [Kim et al., 2017]). […] WST-1 is a substrate of mitochondrial dehydrogenases and is converted to a colored dye called formazan in viable cells. Because the intensity of dye is proportional to the amount of enzyme, WST-1 reagent cell proliferation assay is widely used to measure the cell viability ([Ngamwongsatit et al., 2008]).

[2] = tested on: HEK293 cells; test: WST-1 cytotoxicity / cell viability assay; type: cell-based, human
Procedure: as §1, §2, §3

[3] = WST-1 cytotoxicity / cell viability assay; type: cell-based, human; conditions: human, SH-SY5Y cells, log-probit on percentage mortality, read-out: LC50
Procedure: as §1, §2
(§4) It has also been used as a preservative for cosmetic products. In addition, it was reported that methylparaben is a chemical compound present in local anesthetic that can alter the function of the human nervous system ([Nathan and Sears, 1961]).

[4] = tested on: SH-SY5Y cells; test: WST-1 cytotoxicity / cell viability assay; type: cell-based, human
Procedure: as §1, §2, §4

[5] = tested on: CCNB1 (cyclin B1); test: Real-time PCR, cyclin B1 mRNA expression in HEK293 cells; type: cell-based, human; conditions: HEK293, 48 h, MB 4.4 mM, EB 1.7 mM, VB 1.7 mM, ACTIN reference
Procedure: (§5) HEK293 and SH-SY5Y cells were grown to 60–70% confluence in 6 well plates and the media were exchanged with the ones including the chemicals, MB, EB, or VB in the given concentrations. After 48 h incubation, the cells were washed with cold PBS once and scraped. The cells were washed again with cold PBS twice before extracting total RNA molecules using Qiagen RNeasy kit. cDNAs were constructed from 600 ng of the collected RNAs using Reverse Transcription System (Promega, Japan). cDNA was analyzed through real-time quantifying PCR using SYBR Green Realtime PCR Master Mix (Toyobo, Japan) according to the manufacturer's instructions (CFX96 Touch Real-time PCR System, Bio-Rad).
(§6) Further, we prompted to assess whether the gene expression of cell cycle and stress regulators such as cyclins and HSP70 is affected by MB, EB, and VB. These chemicals were applied to the HEK293 or SH-SY5Y cells at the concentrations of 4.4 mM [0.06% MB, 0.05% (3.7 mM) for SH-SY5Y cells], 1.7 mM (0.025%, EB), and 1.7 mM (0.025%, VB), respectively, for 48 h before extracting the total RNAs from the cells. The concentrations were chosen based on the LC50 values, approximately a third of the values, that would not cause cell death but could influence the gene expression in the tested cells. mRNAs of HSP70, CCNB1 (cyclin B1), and CCND1 (cyclin D1) were quantified by real-time PCR with ACTIN as a reference gene. Cyclin B1 is a checkpoint regulator for S/G2 transition, whereas cyclin D1 is for G1 progression ([Baldin et al., 1993]; [Hwang et al., 1995]). […] The mRNA expression of HSP70, a stress-inducible gene ([Huang et al., 2001]), decreased in MB-, EB-, and VB-treated HEK293 cells, and VB-treated samples showing the least expression (Figure 4A). […] For SH-SY5Y cells, we also measured the mRNA expression of AChE, acetylcholinesterase gene ([Dvir et al., 2010]), because of the similar structure of these chemicals to methylparaben ([Nathan and Sears, 1961]) and of the fact that MB has been reported to have a repellent effect against some insect pests such as Bemisia tabaci (Gennadius) ([Mostafiz et al., 2018]).

[6] = tested on: HSP70; test: Real-time PCR, HSP70 mRNA expression in HEK293 cells; type: cell-based, human; conditions: HEK293, 48 h, MB 4.4 mM, EB 1.7 mM, VB 1.7 mM, ACTIN reference
Procedure: as §5, §6

[7] = tested on: HSP70, CCNB1 (cyclin B1), and CCND1 (cyclin D1); test: Real-time PCR, HSP70, CCNB1 and CCND1 mRNA expression in SH-SY5Y cells; type: cell-based, human; conditions: 48 h, MB 3.7 mM, EB 1.7 mM, VB 1.7 mM
Procedure: as §5, §6

[8] = tested on: AChE, acetylcholinesterase gene; test: Real-time PCR, AChE mRNA expression in SH-SY5Y cells; type: cell-based, human; conditions: 48 h, MB 3.7 mM, EB 1.7 mM, VB 1.7 mM
Procedure: as §5, §6

[9] = WST-1 cytotoxicity / cell viability assay; type: cell-based, human; conditions: human, CACO2 cells; CACO2, WST assay, log-probit on percentage mortality; read-out: LC50
Procedure: as §1, §2
(§7) Ingested residual pesticides from agricultural foods may stay in the colon for a longer time than any other organs.

[10] = tested on: CACO2 cells; test: WST-1 cytotoxicity / cell viability assay; type: cell-based, human; conditions: for reduction in CACO2 cells in the WST-1 assay: acetone-T20 solvent
Procedure: as §1, §2, §7

[11] = Crystal violet cell staining assay; type: cell-based; conditions: human, HEK293 cells, in agreement with WST-1, read-out: upper limit of MB concentration for HEK293 cell viability
Procedure: For the crystal violet experiment, cells were split into a 96 well and MB was applied to each well as described above and then HEK293 cells were grown for 1–2 days and CACO2 cells for 4–5 days. Crystal violet staining method published by M. [Feoktistova et al., (2016)] was used without modifications. The resultant plate was taken picture of. In addition, the stained cells were dissolved in methanol and the intensity of color was measured at 595 nm (Tecan Sunrise, Switzerland).

[12] = Visual observation of aggregates in cell culture media; type: physicochemical; conditions: MB higher than 5.5 mM (0.075%) applied to the media; persisted with T20
Procedure: Therefore, we aimed to identify an upper limit of MB concentration between 0.1 and 11 mM (0.001% and 0.15%) where the growth of HEK293 cells was less affected. Seven MB concentrations, 0, 0.1, 0.7, 3.7, 5.5, 7.0, 11 mM (0%, 0.001%, 0.01%, 0.05%, 0.075%, 0.1%, and 0.15%), were applied to HEK293 cells and the WST-1 experiment was performed. […] This might be because of the hydrophobicity of MB which causes it to form aggregates facilitated by the aqueous condition in the cell culture media. […] The WST-1 data were similar to the results without T20, except for 5.5 mM MB. […] We attributed the increased sensitivity of MB concentration 5.5 mM (0.075%) in the acetone-T20 solvent to the synergistic cytotoxic effect in the presence of the detergent, T20 with MB or the enhanced solubility of MB.

[13] = tested on: CCND1 (cyclin D1); test: Real-time PCR, cyclin D1 mRNA expression in HEK293 cells; type: cell-based, human; conditions: HEK293, 48 h, VB 1.7 mM, ACTIN reference
Procedure: as §5
Further, we prompted to assess whether the gene expression of cell cycle and stress regulators such as cyclins and HSP70 is affected by MB, EB, and VB. These chemicals were applied to the HEK293 or SH-SY5Y cells at the concentrations of 4.4 mM [0.06% MB, 0.05% (3.7 mM) for SH-SY5Y cells], 1.7 mM (0.025%, EB), and 1.7 mM (0.025%, VB), respectively, for 48 h before extracting the total RNAs from the cells. The concentrations were chosen based on the LC50 values, approximately a third of the values, that would not cause cell death but could influence the gene expression in the tested cells. mRNAs of HSP70, CCNB1 (cyclin B1), and CCND1 (cyclin D1) were quantified by real-time PCR with ACTIN as a reference gene. […]

[14] = tested on: HSP70; test: Western blot, HSP70 protein level in HEK293 cells; type: cell-based, human; conditions: HEK293, VB 1.7 mM (250 ppm), α-Tubulin loading control
Procedure: HEK293 cells grown in 6 well plates for Western blots and SDS polyacrylamide gel electrophoresis (SDS-PAGE) were washed with cold PBS twice and scraped in RIPA buffer (Cell Signaling, Cat. 9806, USA). Protein concentration in each sample was measured through Bradford assay using Bio-Rad Protein Assay Dye Reagent Concentrate (Bio-Rad #5000006) and spectrophotometry at 595 nm (Tecan Sunrise™ Absorbance Microplate Reader, Switzerland). From the measured protein concentration, a total of 15 μg of proteins per each sample were loaded on 7% SDS-PA gels, blotted onto nitrocellulous membrane, and probed for HSP70 and α-Tubulin using corresponding antibody (HSP70, Santa Cruz sc-32239; α-Tubulin, Santa Cruz sc-8035) in Western blot assay.
Further, we prompted to assess whether the gene expression of cell cycle and stress regulators such as cyclins and HSP70 is affected by MB, EB, and VB. […] The concentrations were chosen based on the LC50 values, approximately a third of the values, that would not cause cell death but could influence the gene expression in the tested cells. mRNAs of HSP70, CCNB1 (cyclin B1), and CCND1 (cyclin D1) were quantified by real-time PCR with ACTIN as a reference gene. […]

[15] = log-probit on percentage mortality
[16] = log-probit on percentage mortality, read-out: LC50 (the source's name)

CCOC(=O)c1ccccc1 [EB, ethyl benzoate]
CC50 at 48 h [1]: 6.9 mM
LC50 [2, 15]: 0.104%
CC50 at 48 h [3]: 7.3 mM
LC50 [4, 15]: 0.11%
cyclin B1 mRNA expression compared with solvent control [5]: rarely differentiated
HSP70 mRNA expression compared with solvent control [6]: decreased
mRNA expression of HSP70, CCNB1 and CCND1 [7]: did not display notable differential expressions
AChE mRNA expression [8]: hardly any change

COC(=O)c1ccccc1 [MB, Methyl benzoate]
CC50 at 48 h [1]: 13.2 mM
LC50 [2, 15]: 0.18%
CC50 at 48 h [9]: 20.6 mM
reduction in CACO2 cells in the WST-1 assay ([10]; CACO2, MB 3.7 mM (0.05%)): about 30%
reduction in CACO2 cells in the WST-1 assay ([10]; CACO2, MB 7.3 mM (0.1%)): > 90%
LC50 ([10]; CACO2, WST assay, log-probit on percentage mortality): 0.28%
CC50 at 48 h [3]: 11 mM
LC50 [4, 15]: 0.15%
viability [11]: ≤ 0.05%
cyclin B1 mRNA expression compared with solvent control [5]: rarely differentiated
HSP70 mRNA expression compared with solvent control [6]: decreased
mRNA expression of HSP70, CCNB1 and CCND1 [7]: did not display notable differential expressions
AChE mRNA expression [8]: hardly any change
aggregate formation in cell culture media [12]: formed silver-colored aggregates

C=COC(=O)c1ccccc1 [VB, vinyl benzoate]
relative toxicity among MB, EB and VB [2]: most toxic
LC50 [2, 15]: 0.08%
CC50 [2, 16]: 5.4 mM
relative toxicity among MB, EB and VB [4]: most toxic
LC50 [4, 15]: 0.09%
CC50 [4, 16]: 6.1 mM
cyclin B1 mRNA expression compared with solvent control [5]: rarely differentiated
cyclin D1 mRNA expression compared with solvent control [13]: noticeable reduction
HSP70 mRNA expression compared with solvent control [6]: decreased
HSP70 protein level [14]: consistently decreased
mRNA expression of HSP70, CCNB1 and CCND1 [7]: did not display notable differential expressions
AChE mRNA expression [8]: mild increase
